Reference: BindingDB's records for PubMed 27021004 (University of Warwick, 2016)

Target: T1, Phospho-N-acetylmuramoyl-pentapeptide-transferase (Bacillus subtilis (strain 168), UniProt Q03521)
T1 sequence (Q03521 whole entry): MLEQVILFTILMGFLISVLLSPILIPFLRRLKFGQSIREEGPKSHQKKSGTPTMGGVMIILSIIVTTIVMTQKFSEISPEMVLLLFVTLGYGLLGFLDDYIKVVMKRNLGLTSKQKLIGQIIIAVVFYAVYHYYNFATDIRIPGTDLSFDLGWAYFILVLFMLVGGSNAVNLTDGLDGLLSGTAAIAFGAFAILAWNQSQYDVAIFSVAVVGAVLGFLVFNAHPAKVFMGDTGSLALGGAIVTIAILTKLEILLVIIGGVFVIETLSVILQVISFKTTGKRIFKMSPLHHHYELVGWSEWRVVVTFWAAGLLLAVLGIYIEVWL
Experiment: Inhibition of Bacillus subtilis MraY

IC50: 400 nM
Compound: NC[C@H]1O[C@@H](O[C@@H](Cn2cc(CCCCCO)nn2)[C@H]2O[C@@H](n3ccc(=O)[nH]c3=O)[C@H](O)[C@@H]2O)[C@H](O)[C@@H]1O
